Article PMC9649909, “Wnt-pathway inhibitors with selective activity against triple-negative breast cancer: From thienopyrimidine to quinazoline inhibitors” (Frontiers in Pharmacology, 2022)
Where two headings read alike, the source gives them in different places.

Legend:
HCC1395 cells = assay: Cytotoxicity by Renilla luciferase under CMV promoter
Procedure: (§1) The simplicity of the scaffold combined with synthetic accessibility allows building a library of compounds and performing structure activity relationship (SAR) studies of the three main parts of the molecule: the top part, the linker and the core (Figure 2).
(§2) The synthesized compounds were used to explore SAR of three defined areas of investigation (Figure 2). All compounds were tested in the HCC1395 TNBC cell line using the GSK3β inhibitor to induce β-catenin signaling since 4a acted downstream of GSK3β (Figure 2). Both inhibition of β-catenin signaling measured by the TopFlash reporter and cytotoxicity measured by the Renilla reporter were assessed.
(§3) The Wnt3a or CHIR99021-stimulated luciferase activity in HCC1395 TNBC cell line stably transfected with the TopFlash reporter was analyzed essentially as described for the BT-20 TNBC cell line ([Shaw et al., 2019b]; [Koval et al., 2021]). Reporter cells were seeded at 10,000 cells/well in a white opaque 384-well plate in the final volume of 20 μl of DMEM medium supplemented with 10% FCS. The cells were maintained incubated at 37°C, 5% CO2 overnight for attachment. Subsequently, they were transfected by a plasmid encoding constitutively expressed Renilla luciferase under the CMV promoter overall as described in the manufacturer’s protocol using 12 μg/ml of DNA and 40 μl/ml XtremeGENE nine reagent. The next day, the medium in each well was replaced with a 10 μl of fresh medium containing compound of interest, and, after 1 h of preincubation with the compounds, additional 10 μl of medium supplemented with Wnt3a [purified as described ([Willert et al., 2003]; [Koval and Katanaev, 2011])] or CHIR99021 were added creating respective final concentrations of 2.5 μg/ml or 5 μM of each. In case of other signal transduction reporters, no additional stimulation was performed. Compound dilutions were prepared by serial dilution in DMSO and diluted with the amount of medium necessary to obtain their final concentrations indicated on the figures and tables and maintain concentration of DMSO of 0.5% in all assay points. After overnight incubation, the supernatant in each well was removed, and the luciferase activity was measured as described ([Dyer et al., 2000]; [Huber et al., 2021]; [Pellissier et al., 2021]). The culture medium was completely removed from all wells of the plate. Finally, the luciferase activity of the firefly and Renilla luciferases was detected sequentially in individual wells of a 384-well plate through injection of corresponding measurement solutions and immediate reading (400 ms integration time) in Infinite M Plex multifunctional plate reader with injection module.

BT-20 TNBC cell line = assay: MTT survival assay BT-20; format: cell-based; settings: Table S2; for IC50: read-out: MTT BT-20 IC50
Procedure: (§4) Indicated TNBC cell lines were detached and resuspended at 120,000 cells/ml and added into each well of a transparent 384-well plate in the final volume of 20 µl/well. The cells were maintained in DMEM containing 10% FBS at 37°C, 5% CO2 overnight. Next day, the medium in each well was replaced by 40 μl of the fresh one containing the indicated concentrations of compounds. In case of drug combination experiments, each compound dilution was delivered in corresponding well in 20 μl of medium. […] After incubation for 3–4 days, depending on the cell line, the medium in each well was replaced by 25 μl of 0.5 mg/ml Thiazolyl blue solution in 1xPBS following by incubation for 3 h at 37°C. Then the solution was removed and 25 μl DMSO was added into each well. Absorbance at 510 nm was measured in a Tecan Infinite M200 PRO plate reader.

[1] = test system: non-cancerous breast epithelial cell line MCF10a; assay: MTT survival assay MCF10a; format: cell-based; settings: for IC50: read-out: MTT MCF10 IC50
Procedure: as §4

HCC1395 TNBC cell line = assay: MTT survival assay HCC1395; format: cell-based; settings: Table S2; for IC50: read-out: MTT HCC-1395 IC50
Procedure: as §4

[2] = test system: β-catenin-dependent Wnt-pathway; assay: TopFlash luciferase reporter assay, CHIR99021-stimulated, HCC1395; format: cell-based; settings: for Emax: read-out: HCC1395 TopFlash Efficacy; for fold improvement in the activity compared to 4a: TopFlash IC50 vs 4a
Source text: Both stimulations abolish formation of the destruction complex, a multiprotein complex consisting of Axin, adenomatous polyposis coli (APC), glycogen synthase kinase three beta (GSK3β), and casein kinase one alpha (CK1α). Upon inactivation of the complex, β-catenin accumulates in the cytoplasm and translocates into the nucleus where it interacts with transcription factors. These downstream events are quantified by a Luciferase transcription-based readout assay (TopFlash assay).

[3] = test system: MDA-MB-468 TNBC cell line; assay: MTT survival assay MDA-MB-468; format: cell-based; settings: Table S2
Procedure: as §4

HCC1806 TNBC cell line = assay: MTT survival assay HCC1806; format: cell-based; settings: Table S2; for IC50: read-out: MTT HCC1806 IC50
Procedure: as §4

[4] = test system: MDA-MB-231 TNBC cell line; assay: MTT survival assay MDA-MB-231; format: cell-based
Procedure: as §4

in vitro = settings: human, HCC1395 Cytotoxicity IC50
Procedure: as §1, §2, §3

[5] = Homo sapiens, MCF-10A, Table S2
[6] = Homo sapiens, HCC1395, HCC1395, stimulation with CHIR99021 (GSK3β inhibitor)
[7] = Homo sapiens, HCC1395, HCC1395, stimulation with CHIR99021 (GSK3β inhibitor), read-out: HCC1395 TopFlash IC50
[8] = Homo sapiens, MDA-MB-231, Table S2, read-out: MTT MDA-MB-231 IC50

Compound | MTT MDA-MB-231 plateau ([4]; Table S2) | GSK HCC1395 Renilla Comments (HCC1395 cells) | IC50 (in vitro) | IC50 (BT-20 TNBC cell line; Homo sapiens, BT-20) | IC50 [1, 5] | MTT MCF10 Comments ([1]; Table S2) | IC50 (HCC1395 TNBC cell line; Homo sapiens, HCC1395) | Emax [2, 6] | IC50 [2, 7] | IC50 ([3]; Homo sapiens, MDA-MB-468) | IC50 (HCC1806 TNBC cell line; Homo sapiens, HCC1806) | MTT HCC1806 Comments (HCC1806 TNBC cell line) | IC50 [4, 8] | fold improvement in the activity compared to 4a [2] | further results
2-chloro-N-(2-methoxybenzyl)quinazolin-4-amine [Compound 8a] | 53.88 |  |  |  |  |  |  |  |  |  |  |  |  |  | IC50 (HCC1395 cells; read-out: HCC1395 Cytotoxicity IC50, Renilla luciferase, HCC1395): > 100 µM; MTT BT-20 plateau (BT-20 TNBC cell line): 100; IC50 (BT-20 TNBC cell line): 2.96 µM; selectivity over the control cells (difference in IC50, MCF10a vs HCC1395) ([1]; MTT IC50 ratio MCF10a / HCC1395): less than 3 fold; MTT MCF10 plateau ([1]; Table S2): 100; IC50 ([1]; Table S2): 10.5 µM; MTT HCC1395 plateau (HCC1395 TNBC cell line): 100; IC50 (HCC1395 TNBC cell line): 7.83 µM; TopFlash activity in words ([2]; HCC1395, CHIR99021): no longer active; GSK HCC1395 plateau ([2]; Table S2): 100; IC50 ([2]; Table S2, TopFlash, GSK3β inhibitor stimulation, read-out: GSK HCC1395 IC50): 42.8 µM; IC50 [3]: 3.19 µM; MTT MDA-MB-468 plateau [3]: 69.23; MTT HCC1806 plateau (HCC1806 TNBC cell line): 100; IC50 (HCC1806 TNBC cell line): 22.7 µM; IC50 ([4]; Table S2, read-out: MTT MDA-MB-231 IC50): 2.65 µM
COc1cccc(CNc2ncnc3sccc23)c1 [Compound 4c, N-(3-methoxybenzyl)thieno[2,3-d]pyrimidin-4-amine] | 100 | Non-toxic | > 50 µM | 2.89 µM | > 50 µM | Inactive | 1.08 µM | 58.6 ± 22.8% | 4.96 ± 1.65 µM | 1.61 µM | > 50 µM | Inactive | 9.37 µM |  | IC50 (HCC1395 cells; human): > 100 µM; IC50 ([4]; Homo sapiens, MDA-MB-231, Figure 3B heatmap, read-out: IC50, μM (MDA-MB-231)): > 10 µM
Fc1ccc(CNc2ncnc3sccc23)cc1 [Compound 4g, N-(4-fluorobenzyl)thieno[2,3-d]pyrimidin-4-amine] | 100 | Non-toxic | > 50 µM | 1.63 µM | > 10 µM | Inactive | 1.96 µM | 78.6 ± 29.8% | 4.15 ± 0.91 µM | 1.46 µM | 2.37 µM |  | 25.4 µM | 2 fold | 
Clc1cccc(CNc2ncnc3sccc23)c1 [Compound 4i, N-(3-chlorobenzyl)thieno[2,3-d]pyrimidin-4-amine] | 100 | Non-toxic | > 50 µM | 5.24 µM | > 10 µM | Inactive | 1.74 µM | 56.2 ± 4% | 8.4 ± 5.01 µM | 1.44 µM | 2.2 µM |  | 18.7 µM |  | 
Clc1ccc(CNc2ncnc3sccc23)cc1 [Compound 4j, N-(4-chlorobenzyl)thieno[2,3-d]pyrimidin-4-amine] | 92.63 |  | > 50 µM | 6.29 µM | 20.4 µM |  | 1.42 µM | 74.6 ± 12% | 3.19 ± 1.64 µM | 3.93 µM | 26.2 µM |  | 45.3 µM | 2 fold | 
Cc1cccc(CNc2ncnc3sccc23)c1 [Compound 4n, N-(3-methylbenzyl)thieno[2,3-d]pyrimidin-4-amine] |  |  | > 50 µM | 4.72 µM | > 10 µM | Inactive | 1.05 µM | 52.9 ± 6.8% | 3.76 ± 1.9 µM | 0.48 µM | > 10 µM | Inactive | > 10 µM |  | MTT MDA-MB-231 Comments ([4]; Table S2): Inactive
